target: T1, α-7 nicotinic acetylcholine receptor channel expressed in HEK 293 cells (Rattus norvegicus, UniProt Q05941); assay: Ca2+-sensitive fluorescence-based FLIPR assay, α7 nicotinic ACh receptor channel function (agonist); type: cell-based; details: FLIPR α7 (EC50, nM), Table Ib; HEK 293 cells, agonist Ca2+ flux
T1 construct: expressed in transfected cells
Outline: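 Potency and efficacy derived from kinetic FLIPR Ca²⁺-flux fluorescence, recorded 3 min after compound addition in Hanks buffer following a 10 s baseline.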

T1 sequence (Q05941 23-502): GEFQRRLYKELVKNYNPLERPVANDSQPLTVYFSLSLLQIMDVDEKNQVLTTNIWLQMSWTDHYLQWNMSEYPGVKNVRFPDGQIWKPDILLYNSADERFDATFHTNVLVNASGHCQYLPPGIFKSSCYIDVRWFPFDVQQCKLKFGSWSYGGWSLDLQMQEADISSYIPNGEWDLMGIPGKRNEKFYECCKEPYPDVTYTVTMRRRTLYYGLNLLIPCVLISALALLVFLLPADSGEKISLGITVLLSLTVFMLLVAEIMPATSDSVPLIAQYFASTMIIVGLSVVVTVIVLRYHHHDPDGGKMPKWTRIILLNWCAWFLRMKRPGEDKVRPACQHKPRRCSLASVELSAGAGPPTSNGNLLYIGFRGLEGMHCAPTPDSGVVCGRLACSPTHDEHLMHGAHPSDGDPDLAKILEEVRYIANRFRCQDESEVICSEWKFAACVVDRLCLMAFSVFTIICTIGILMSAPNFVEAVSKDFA

Compound | EC50 [nM]
Clc1cncc(-c2ccnc(NC3=NC[C@@]4(CN5CCC4CC5)O3)c2)c1 [Example 297, (R)—N-(5-Chloro-3,4′-bipyridin-2′-yl)-4H-1′-azaspiro[oxazole-5,3′-bicyclo[2.2.2]octan]-2-amine] | 35
COc1ccc(-c2ccnc(NC3=NC[C@@]4(CN5CCC4CC5)O3)c2)cn1 [Example 298, (R)—N-(6-Methoxy-3,4′-bipyridin-2′-yl)-4H-1′-azaspiro[oxazole-5,3′-bicyclo[2.2.2]octan]-2-amine] | 25
c1ccc(-c2ccnc(NC3=NC[C@@]4(CN5CCC4CC5)O3)c2)cc1 [Example 302, (R)—N-(4-Phenylpyridin-2-yl)-4H-1′-azaspiro[oxazole-5,3′-bicyclo[2.2.2]octan]-2-amine] | 9
Cc1nc(NC2=NC[C@@]3(CN4CCC3CC4)O2)c(Cl)cc1Cl [Example 308, (R)—N-(3,5-Dichloro-6-methylpyridin-2-yl)-4H-1′-azaspiro[oxazole-5,3′-bicyclo[2.2.2]octan]-2-amine] | 59
COc1cnc(NC2=NC[C@@]3(CN4CCC3CC4)O2)nc1Cl [Example 317, (R)—N-(4-Chloro-5-methoxypyrimidin-2-yl)-4H-1′-azaspiro[oxazole-5,3′-bicyclo[2.2.2]octan]-2-amine] | 660
Cc1nc(NC2=NC[C@@]3(CN4CCC3CC4)O2)cc2cc(F)ccc12 [Example 325, (R)—N-(6-Fluoro-1-methylisoquinolin-3-yl)-4H-1′-azaspiro[oxazole-5,3′-bicyclo[2.2.2]octan]-2-amine] | 139

same assay, conditions: FLIPR α7 activity rating (EC50, nM), Table 1; HEK 293 cells, agonist Ca2+ flux

Compound | EC50 [nM]
Clc1ccc2oc(NC3=NC[C@@]4(CN5CCC4CC5)O3)nc2c1 [Example 289, (R)—N-(5-Chlorobenzo[d]oxazol-2-yl)-4H-1′-azaspiro[oxazole-5,3′-bicyclo[2.2.2]octan]-2-amine] | < 100
c1cnc2nc(NC3=NC[C@@]4(CN5CCC4CC5)O3)oc2c1 [Example 290, (R)—N-(Oxazolo[4,5-b]pyridin-2-yl)-4H-1′-azaspiro[oxazole-5,3′-bicyclo[2.2.2]octan]-2-amine] | < 100
Cc1ccc2cnc(NC3=NC[C@@]4(CN5CCC4CC5)O3)cc2c1 [Example 291, (R)—N-(6-Methylisoquinolin-3-yl)-4H-1′-azaspiro[oxazole-5,3′-bicyclo[2.2.2]octan]-2-amine] | < 100
Brc1ccc2cnc(NC3=NC[C@@]4(CN5CCC4CC5)O3)cc2c1 [Example 292, (R)—N-(6-Bromoisoquinolin-3-yl)-4H-1′-azaspiro[oxazole-5,3′-bicyclo[2.2.2]octan]-2-amine] | < 100
Brc1ccc2cc(NC3=NC[C@@]4(CN5CCC4CC5)O3)ncc2c1 [Example 293, (R)—N-(7-Bromoisoquinolin-3-yl)-4H-1′-azaspiro[oxazole-5,3′-bicyclo[2.2.2]octan]-2-amine] | 100 to 1000
Brc1cccc2cnc(NC3=NC[C@@]4(CN5CCC4CC5)O3)cc12 [Example 294, (R)—N-(5-bromoisoquinolin-3-yl)-4H-1′-azaspiro[oxazole-5,3′-bicyclo[2.2.2]octan]-2-amine] | < 100
Cc1cc(C)c2cnc(NC3=NC[C@@]4(CN5CCC4CC5)O3)cc2c1 [Example 295, (2R)—N-(6,8-Dimethyl-3-isoquinolinyl)-4′H-spiro[4-azabicyclo[2.2.2]octane-2,5′-[1,3]oxazol]-2′-amine] | 100 to 1000

same assay, conditions: FLIPR α7 activity rating (EC50, nM), Table Ib; HEK 293 cells, agonist Ca2+ flux

Compound | EC50 [nM]
c1cncc(-c2ccnc(NC3=NC[C@@]4(CN5CCC4CC5)O3)c2)c1 [Example 296, (R)—N-(3,4′-Bipyridin-2′-yl)-4H-1′-azaspiro[oxazole-5,3′-bicyclo[2.2.2]octan]-2-amine] | < 100
Clc1cncc(-c2ccnc(NC3=NC[C@@]4(CN5CCC4CC5)O3)c2)c1 [Example 297, (R)—N-(5-Chloro-3,4′-bipyridin-2′-yl)-4H-1′-azaspiro[oxazole-5,3′-bicyclo[2.2.2]octan]-2-amine] | < 100
COc1ccc(-c2ccnc(NC3=NC[C@@]4(CN5CCC4CC5)O3)c2)cn1 [Example 298, (R)—N-(6-Methoxy-3,4′-bipyridin-2′-yl)-4H-1′-azaspiro[oxazole-5,3′-bicyclo[2.2.2]octan]-2-amine] | < 100
Fc1ccc(-c2ccnc(NC3=NC[C@@]4(CN5CCC4CC5)O3)c2)cn1 [Example 299, (R)—N-(6-Fluoro-3,4′-bipyridin-2′-yl)-4H-1′-azaspiro[oxazole-5,3′-bicyclo[2.2.2]octan]-2-amine] | < 100
Fc1ccc(-c2ccnc(NC3=NC[C@@]4(CN5CCC4CC5)O3)c2)cc1Cl [Example 300, (R)—N-(4-(3-Chloro-4-fluoro-phenyl)pyridin-2-yl)-4H-1′-azaspiro[oxazole-5,3′-bicyclo[2.2.2]octan]-2-amine] | < 100
Cc1cccc(-c2ccnc(NC3=NC[C@@]4(CN5CCC4CC5)O3)c2)c1 [Example 301, (R)—N-(4-m-Tolylpyridin-2-yl)-4H-1′-azaspiro[oxazole-5,3′-bicyclo[2.2.2]octan]-2-amine] | < 100
c1ccc(-c2ccnc(NC3=NC[C@@]4(CN5CCC4CC5)O3)c2)cc1 [Example 302, (R)—N-(4-Phenylpyridin-2-yl)-4H-1′-azaspiro[oxazole-5,3′-bicyclo[2.2.2]octan]-2-amine] | < 100
Cn1cc(-c2ccnc(NC3=NC[C@@]4(CN5CCC4CC5)O3)c2)cn1 [Example 303, (R)—N-(4-(1-Methyl-1H-pyrazol-4-yl)pyridin-2-yl)-4H-1′-azaspiro[oxazole-5,3′-bicyclo[2.2.2]octan]-2-amine] | < 100
c1cc(-c2cscn2)cc(NC2=NC[C@@]3(CN4CCC3CC4)O2)n1 [Example 304, (R)—N-(4-(Thiazol-4-yl)pyridin-2-yl)-4H-1′-azaspiro[oxazole-5,3′-bicyclo[2.2.2]octan]-2-amine] | < 100
O=[N+]([O-])c1ccc(-c2ccnc(NC3=NC[C@@]4(CN5CCC4CC5)O3)c2)cn1 [Example 305, (R)—N-(6-Nitro-3,4′-bipyridin-2′-yl)-4H-1′-azaspiro[oxazole-5,3′-bicyclo[2.2.2]octan]-2-amine] | < 100
Cc1nc(NC2=NC[C@@]3(CN4CCC3CC4)O2)ccc1Cl [Example 306, (R)—N-(5-Chloro-6-methylpyridin-2-yl)-4H-1′-azaspiro[oxazole-5,3′-bicyclo[2.2.2]octan]-2-amine] | < 100
Cc1cc(NC2=NC[C@@]3(CN4CCC3CC4)O2)ncc1F [Example 307, (R)—N-(5-Fluoro-4-methylpyridin-2-yl)-4H-1′-azaspiro[oxazole-5,3′-bicyclo[2.2.2]octan]-2-amine] | < 100
Cc1nc(NC2=NC[C@@]3(CN4CCC3CC4)O2)c(Cl)cc1Cl [Example 308, (R)—N-(3,5-Dichloro-6-methylpyridin-2-yl)-4H-1′-azaspiro[oxazole-5,3′-bicyclo[2.2.2]octan]-2-amine] | < 100
Cc1cnc(NC2=NC[C@@]3(CN4CCC3CC4)O2)cc1C [Example 309, (R)—N-(4,5-Dimethylpyridin-2-yl)-4H-1′-azaspiro[oxazole-5,3′-bicyclo[2.2.2]octan]-2-amine] | < 100
COc1ccc(NC2=NC[C@@]3(CN4CCC3CC4)O2)nc1 [Example 310, (R)—N-(5-Methoxypyridin-2-yl)-4H-1′-azaspiro[oxazole-5,3′-bicyclo[2.2.2]octan]-2-amine] | < 100
Clc1c(NC2=NC[C@@]3(CN4CCC3CC4)O2)ncc2ccccc12 [Example 311, (R)—N-(4-Chloroisoquinolin-3-yl)-4H-1′-azaspiro[oxazole-5,3′-bicyclo[2.2.2]octan]-2-amine] | < 100

Compound | EC50 [nM]
Fc1c(Cl)ccc2cc(NC3=NC[C@@]4(CN5CCC4CC5)O3)ncc12 [Example 312, (R)—N-(7-Chloro-8-fluoroisoquinolin-3-yl)-4H-1′-azaspiro[oxazole-5,3′-bicyclo[2.2.2]octan]-2-amine] | < 100
Cc1nc(NC2=NC[C@@]3(CN4CCC3CC4)O2)cc2ccccc12 [Example 313, (R)—N-(1-Methylisoquinolin-3-yl)-4H-1′-azaspiro[oxazole-5,3′-bicyclo[2.2.2]octan]-2-amine] | < 100
Fc1ccc(-c2cc(NC3=NC[C@@]4(CN5CCC4CC5)O3)ncn2)cc1 [Example 314, (R)—N-(6-(4-Fluorophenyl)pyrimidin-4-yl)-4H-1′-azaspiro[oxazole-5,3′-bicyclo[2.2.2]octan]-2-amine] | < 100
Fc1cccc(-c2cc(NC3=NC[C@@]4(CN5CCC4CC5)O3)ncn2)c1 [Example 315, (R)—N-(6-(3-Fluorophenyl)pyrimidin-4-yl)-4H-1′-azaspiro[oxazole-5,3′-bicyclo[2.2.2]octan]-2-amine] | < 100
Fc1cnc(NC2=NC[C@@]3(CN4CCC3CC4)O2)nc1 [Example 316, (R)—N-(5-Fluoropyrimidin-2-yl)-4H-1′-azaspiro[oxazole-5,3′-bicyclo[2.2.2]octan]-2-amine] | < 100
COc1cnc(NC2=NC[C@@]3(CN4CCC3CC4)O2)nc1Cl [Example 317, (R)—N-(4-Chloro-5-methoxypyrimidin-2-yl)-4H-1′-azaspiro[oxazole-5,3′-bicyclo[2.2.2]octan]-2-amine] | 100 to 1000
Fc1cc(F)c2cnc(NC3=NC[C@@]4(CN5CCC4CC5)O3)cc2c1 [Example 318, (R)—N-(6,8-Difluoroisoquinolin-3-yl)-4H-1′-azaspiro[oxazole-5,3′-bicyclo[2.2.2]octan]-2-amine] | < 100
Fc1cc2cnc(NC3=NC[C@@]4(CN5CCC4CC5)O3)cc2cc1F [Example 319, (R)—N-(6,7-Difluoroisoquinolin-3-yl)-4H-1′-azaspiro[oxazole-5,3′-bicyclo[2.2.2]octan]-2-amine] | < 100
Fc1ccc(F)c2cc(NC3=NC[C@@]4(CN5CCC4CC5)O3)ncc12 [Example 320, (R)—N-(5,8-Difluoroisoquinolin-3-yl)-4H-1′-azaspiro[oxazole-5,3′-bicyclo[2.2.2]octan]-2-amine] | < 100
Fc1ccc2cnc(NC3=NC[C@@]4(CN5CCC4CC5)O3)nc2c1 [Example 321, (R)—N-(7-Fluoroquinazolin-2-yl)-4H-1′-azaspiro[oxazole-5,3′-bicyclo[2.2.2]octan]-2-amine] | < 100
Clc1cccc2nc(NC3=NC[C@@]4(CN5CCC4CC5)O3)ncc12 [Example 322, (R)—N-(5-Chloroquinazolin-2-yl)-4H-1′-azaspiro[oxazole-5,3′-bicyclo[2.2.2]octan]-2-amine] | < 100
Fc1cccc2nc(NC3=NC[C@@]4(CN5CCC4CC5)O3)ncc12 [Example 323, (R)—N-(5-Fluoroquinazolin-2-yl)-4H-1′-azaspiro[oxazole-5,3′-bicyclo[2.2.2]octan]-2-amine] | < 100
Cc1nc(NC2=NC[C@@]3(CN4CCC3CC4)O2)nc2cc(F)ccc12 [Example 324, (R)—N-(7-Fluoro-4-methylquinazolin-2-yl)-4H-1′-azaspiro[oxazole-5,3′-bicyclo[2.2.2]octan]-2-amine] | < 100
Cc1nc(NC2=NC[C@@]3(CN4CCC3CC4)O2)cc2cc(F)ccc12 [Example 325, (R)—N-(6-Fluoro-1-methylisoquinolin-3-yl)-4H-1′-azaspiro[oxazole-5,3′-bicyclo[2.2.2]octan]-2-amine] | 100 to 1000
Cc1nc(NC2=NC[C@@]3(CN4CCC3CC4)O2)cc2cc(Cl)ccc12 [Example 326, (R)—N-(6-Chloro-1-methylisoquinolin-3-yl)-4H-1′-azaspiro[oxazole-5,3′-bicyclo[2.2.2]octan]-2-amine] | 100 to 1000

Source: patent US8309577B2, “Quinuclidine compounds as α-7 nicotinic acetylcholine receptor ligands” (Bristol-Myers Squibb Company, priority 2008, dated 2012)
